Test system: AP-1 induced transcriptional activity
Experiment: Cellular Transrepressional Assay (AP-1 luciferase reporter in A549 cell, PMA activated)
Type: cell-based
Settings: Homo sapiens, A549, 7 h, pAP-1-Luc; for Emax: maximum inhibition, PMA, read-out: AP-1 Max % inh (Cellular Transrepression Assay); for EC50: 10 ng/ml PMA, 7 hours, read-out: AP-1 EC50, nM (Cellular Transrepression Assay)
Experimental: Cellular Transrepressional Assay
To measure the ability of test molecules to inhibit AP-1 induced transcriptional activity we utilized an A549 cell which was stably transfected with a plasmid containing 7×AP-1 DNA binding sites (pAP-1-Luc plasmid, Stratagene Co. La Jolla, Calif.) followed by the gene for luciferase. Cells were activated with 10 ng/ml of phorbol myristic acid (PMA) plus or minus test molecules for 7 hours. After 7 hours a luciferase reagent was added to measure luciferase enzymatic activity in the cell. After a 10 minute incubation of luciferase reagent with cells, luminescence was measured in a TopCount luminescence counter. Repression of AP-1 activity was calculated as the percentage decrease in the signal induced by PMA alone. Test molecules were analyzed in the concentration range from 0.1 nM to 40 μM. EC50s were determined by using standard curve fitting methods such as Excel fit (Microsoft Co.). An EC50 is the test molecule concentration at which there is a 50% repression of the maximal inhibition of transcription, i.e. a 50% reduction of AP-1 activity.

Row | SMILES | EC50 | Emax
1 | C[C@@H](C(=O)Nc1nncs1)[C@H](c1cccc(F)c1)c1ccc(-c2ccc(C(=O)N3CCOCC3)cc2)s1 [Example 109, (2R,3R)-3-(3-fluorophenyl)-2-methyl-3-(5-(4-(4-morpholinylcarbonyl)phenyl)-2-thienyl)-N-1,3,4-thiadiazol-2-ylpropanamide] | 8.39 nM | 57.5%
2 | CC(C)Oc1ccc(-c2ccc([C@@H](c3cccc(F)c3)[C@@H](C)C(=O)Nc3nncs3)s2)cc1 [Example 113, (2R,3R)-3-(3-fluorophenyl)-3-(5-(4-isopropoxyphenyl)-2-thienyl)-2-methyl-N-1,3,4-thiadiazol-2-ylpropanamide] | 17.9 nM | 37.8%
3 | CC(C)Cc1ccc(-c2ccc([C@@H](c3cccc(F)c3)[C@@H](C)C(=O)Nc3nncs3)s2)cc1 [Example 114, (2R,3R)-3-(3-fluorophenyl)-3-(5-(4-isobutylphenyl)-2-thienyl)-2-methyl-N-1,3,4-thiadiazol-2-ylpropanamide] | 45.5 nM | 36.6%
4 | C[C@@H](C(=O)Nc1nncs1)[C@H](c1cccc(F)c1)c1ccc(-c2ccc(C(=O)N3CCCC3)c(Cl)c2)s1 [Example 115, (2R,3R)-3-(5-(3-chloro-4-(1-pyrrolidinylcarbonyl)phenyl)-2-thienyl)-3-(3-fluorophenyl)-2-methyl-N-1,3,4-thiadiazol-2-ylpropanamide] | 31 nM | 39.1%
5 | C[C@@H](C(=O)Nc1nncs1)[C@H](c1cccc(F)c1)c1ccc(-c2ccc(C(=O)N3CCCC3)cc2)s1 [Example 118, (2R,3R)-3-(3-fluorophenyl)-2-methyl-3-(5-(4-(1-pyrrolidinylcarbonyl)phenyl)-2-thienyl)-N-1,3,4-thiadiazol-2-ylpropanamide] | 61.6 nM | 55.3%

Second part, led by results:

Row | EC50 | SMILES | Emax
6 | 15.9 nM | CCN(C)C(=O)c1ccc(-c2ccc([C@@H](c3cccc(F)c3)[C@@H](C)C(=O)Nc3nncs3)s2)cc1 [Example 107, N-ethyl-4-(5-((1R,2R)-1-(3-fluorophenyl)-2-methyl-3-oxo-3-(1,3,4-thiadiazol-2-ylamino)propyl)-2-thienyl)-N-methylbenzamide] | 52.5%
7 | 24.6 nM | C[C@@H](C(=O)Nc1nncs1)[C@H](c1cccc(F)c1)c1ccc(-c2ccc(C(=O)N(C)C)c(Cl)c2)s1 [Example 110, 2-Chloro-4-(5-((1R,2R)-1-(3-fluorophenyl)-2-methyl-3-oxo-3-(1,3,4-thiadiazol-2-ylamino)propyl)-2-thienyl)-N,N-dimethylbenzamide] | 47%
8 | 21.2 nM | C[C@@H](C(=O)Nc1nncs1)[C@H](c1cccc(F)c1)c1ccc(-c2ccc(C(=O)N3CCOCC3)c(Cl)c2)s1 [Example 111, (2R,3R)-3-(5-(3-chloro-4-(4-morpholinylcarbonyl)phenyl)-2-thienyl)-3-(3-fluorophenyl)-2-methyl-N-1,3,4-thiadiazol-2-ylpropanamide] | 53.3%
9 | 18.5 nM | C[C@@H](C(=O)Nc1nncs1)[C@H](c1cccc(F)c1)c1ccc(-c2ccc(C(=O)N(C)C)c(F)c2)s1 [Example 112, 2-fluoro-4-(5-((1R,2R)-1-(3-fluorophenyl)-2-methyl-3-oxo-3-(1,3,4-thiadiazol-2-ylamino)propyl)-2-thienyl)-N,N-dimethylbenzamide] | 54%
10 | 67.7 nM | C[C@@H](C(=O)Nc1nncs1)[C@H](c1cccc(F)c1)c1ccc(-c2ccc(C(=O)N3CCCC3)c(F)c2)s1 [Example 116, (2R,3R)-3-(3-fluorophenyl)-3-(5-(3-fluoro-4-(1-pyrrolidinylcarbonyl)phenyl)-2-thienyl)-2-methyl-N-1,3,4-thiadiazol-2-ylpropanamide] | 40.8%
11 | 14.4 nM | C[C@@H](C(=O)Nc1nncs1)[C@H](c1cccc(F)c1)c1ccc(-c2ccc(C(=O)N(C)C)cc2)s1 [Example 117, 4-(5-((1R,2R)-1-(3-fluorophenyl)-2-methyl-3-oxo-3-(1,3,4-thiadiazol-2-ylamino)propyl)-2-thienyl)-N,N-dimethylbenzamide] | 56.5%
